Test results taken from patent publication US11767313B2, “Compounds as nuclear transport modulators and uses thereof” (XWPHARMA LTD., priority 2018, dated 2023).
Read-outs that look alike come from different tables or passages of the source.

Columns and labels:
U87MG = test: CellTiter-Glo cell proliferation assay, U87MG; assay type: cell-based, human; conditions: for IC50: Homo sapiens, U-87 MG
Outline: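 Cells were seeded at 1,500–5,000 per well overnight, then exposed for 72 h to a 10-point 2- or 3-fold compound dilution series. Viability was read by CellTiter-Glo luminescence as % growth relative to DMSO (high) and medium-only (low) controls. IC50 came from concentration-response curve fitting.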

LN-229 = test: CellTiter-Glo cell proliferation assay, LN-229; assay type: cell-based; conditions: Homo sapiens, LN-229
Description: (§1) CellTiter-Glo® Luminescent Cell Viability assay (with Promega CellTiter 96® Luminescent CellTiter-Glo® kit) was used to study the proliferation inhibition by test compounds. Compounds were resuspended in DMSO to make a 25 mM stock suspension. Cells of cancer cell lines or normal tissues were seeded in 96-well plates at 1,500 to 5,000 cells/well overnight. Compounds were 2- or 3-fold diluted serially to obtain 10 concentrations. Then, the drugs were added to the cell wells by Bravo (Agilent) and incubated for 72 hours. The cells were lysed by adding CellTiter-Glo® Reagent (per manufacturer's instructions) and subsequently, the luminescence was read using EnVision® (PerkinElmer).
(§2) The percent of growth was calculated as follows. DMSO-treated cells were employed as vehicle control (High control, HC) and culture medium alone was employed as background (Low control, EC). % growth=100×(Lum sample−Lum EC)/(Lum HC−Lum EC). The ICso was calculated by concentration-response curve fitting using Graphpad Prism.
(§3) Hematological cancer cell lines tested included OCI-AML3, MV-4-11, KG-1, Kasumi-1, K562, THP-1; solid cancer cell lines tested included U87MG, U251, T98G, LN229, A172, H460, H2009, A549; normal cell lines tested included HCN2 and 3T3-L1. […] However, they were not toxic to in vitro cultured normal cells.

U251 = test: CellTiter-Glo cell proliferation assay, U251; assay type: cell-based; conditions: Homo sapiens, U-251
Description: as §1, §2, §3

T98G = test: CellTiter-Glo cell proliferation assay, T98G; assay type: cell-based; conditions: Homo sapiens, T98G
Description: as §1, §2, §3

A549 = test: CellTiter-Glo cell proliferation assay, A549; assay type: cell-based; conditions: Homo sapiens, 72 hours, Table 1, read-out: Growth inhibition (IC50)
Description: as §1, §2, §3

HCN2 = test: CellTiter-Glo cell proliferation assay, HCN2 (normal brain); assay type: cell-based
Description: as §1, §2, §3

[1] = Pharmacokinetic profile summary; assay type: in vivo, mice or rats; conditions: for bioavailability / Kp at 1 h: oral; for bioavailability / half-life: mice or rats; for AUC / Cmax: po; for Kp at 1 h: brain/plasma, read-out: B/P ratio (Cmax time) 10 mpk
Description: Blood was collected from mice (n=3, or 5) to contribute to the total of 10 time points (pre-dose, 5 min, 15 min, 30 min, 1 hour, 2 hours, 4 hours, 8 hours, 12 hours and 24 hours). At the designated time points, animals were anaesthetized under isoflurane, and approximately 110 μL of blood per time point was collected via retro-orbital puncture into pre-cooled K2EDTA tubes. Blood samples were put on wet ice and centrifuged (2000 g, 5 min at 4° C.) to obtain plasma within 30 minutes of sample collection. All samples were stored frozen at approximately −80° C. until analysis. Prior to analysis, samples were mixed with internal standard in acetonitrile, vortexed, centrifuged, and supernatant was injected for analysis. Concentration of compounds in plasma was determined using LC-MS-MS instrumentation (API 4000, Triple Quadrupole LC/MS/MS Mass Spectrometer). AUC values were calculated using Phoenix Win Nonlin 6.3 software package, PO-Noncompartmental model 200 (extravascular input).
Following collection, brain tissue was rinsed with cold saline, dried on filter paper, weighed and snap-frozen by placing on dry ice. All samples were stored frozen at approximately −80° C. until analysis. At the time of analysis, brain tissue was homogenized (homogenizing solution PBS, pH 7.4), mixed with internal standard in acetonitrile, vortexed, centrifuged, and supernatant was injected for analysis. Concentration of compounds in plasma was determined using LC-MS-MS instrumentation (API 4000, Triple Quadrupole LC/MS/MS Mass Spectrometer). Plasma samples were treated with the identical method (except homogenization step) and the concentration of compound in each matrix was calculated based on generated standard curves.
The pharmacokinetic profile of test compounds in mice or rats was determined from several test compounds was determined using the methods described in Example 22.

XPO1 = XPO1 (Homo sapiens, UniProt O14980); test: REV-GFP translocation assay in U2OS cells; assay type: cell-based; set-up: endogenous in cells; host or cells: U2OS cells stably expressing REV-GFP (clones from HD Biosciences); conditions: for IC50: Table 10
Outline: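 U2OS REV-GFP cells treated for 1 h at 37° C with compounds (top concentration 10 μM, serially diluted), with LMB (top 50 nM) as positive control. Fixed in 4% formaldehyde, Hoechst-stained, and imaged by high-content imaging (20×). % effect of REV nuclear translocation normalised to 50 nM LMB and vehicle signals.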

Ki67 = test: PD effects by IHC in U87MG-luc orthotopic model, Ki67; assay type: in vivo, mice; conditions: orally three times a week for 2 weeks; vs vehicle control
Description: Based on the bioluminescent signal of tumor, mice were randomly assigned to respective groups using a computer-generated randomization procedure, which included vehicle and compound III-treated groups, respectively, with 5 animals per group. Compound III (20 mg/kg) was given orally 3 times a week (on Day 1, 3, 5) for 2 weeks. Animals for IHC study were euthanized at 6 hours after the last dose and perfused with normal saline followed by fixation with 4% paraformaldehyde. Entire brains containing tumors were collected and kept in fixative for 24 hours before proceeding for paraffin block.

[2] = 72 h, U87MG, 72 hours, Table 1, read-out: Growth inhibition (IC50)
[3] = Table 9, first value column, read-out: U87MG IC50
[4] = Table 9, second value column, read-out: U87MG IC50
[5] = Table 11, read-out: Absolute IC50 (μM) LN-229
[6] = Table 11, read-out: Absolute IC50 (μM) U251
[7] = Table 11, read-out: Absolute IC50 (μM) T98G
[8] = 72 h, HCN2 normal cell line, 72 hours, Table 1, read-out: Growth inhibition (IC50)
[9] = 10 mg/kg, plasma, 10 mpk, read-out: Cmax (ng/ml) plasma/10 mpk
[10] = REV-EGFP U2OS cells, 1 h, Table 2, read-out: Rev-GFP/EC50
[11] = first (or only) value of the cell
[12] = Table 13, read-out: Rev-GFP assay/μM
[13] = 72 hours, Table 1, read-out: Growth inhibition (IC50)

Chain of XPO1 (O14980 whole entry): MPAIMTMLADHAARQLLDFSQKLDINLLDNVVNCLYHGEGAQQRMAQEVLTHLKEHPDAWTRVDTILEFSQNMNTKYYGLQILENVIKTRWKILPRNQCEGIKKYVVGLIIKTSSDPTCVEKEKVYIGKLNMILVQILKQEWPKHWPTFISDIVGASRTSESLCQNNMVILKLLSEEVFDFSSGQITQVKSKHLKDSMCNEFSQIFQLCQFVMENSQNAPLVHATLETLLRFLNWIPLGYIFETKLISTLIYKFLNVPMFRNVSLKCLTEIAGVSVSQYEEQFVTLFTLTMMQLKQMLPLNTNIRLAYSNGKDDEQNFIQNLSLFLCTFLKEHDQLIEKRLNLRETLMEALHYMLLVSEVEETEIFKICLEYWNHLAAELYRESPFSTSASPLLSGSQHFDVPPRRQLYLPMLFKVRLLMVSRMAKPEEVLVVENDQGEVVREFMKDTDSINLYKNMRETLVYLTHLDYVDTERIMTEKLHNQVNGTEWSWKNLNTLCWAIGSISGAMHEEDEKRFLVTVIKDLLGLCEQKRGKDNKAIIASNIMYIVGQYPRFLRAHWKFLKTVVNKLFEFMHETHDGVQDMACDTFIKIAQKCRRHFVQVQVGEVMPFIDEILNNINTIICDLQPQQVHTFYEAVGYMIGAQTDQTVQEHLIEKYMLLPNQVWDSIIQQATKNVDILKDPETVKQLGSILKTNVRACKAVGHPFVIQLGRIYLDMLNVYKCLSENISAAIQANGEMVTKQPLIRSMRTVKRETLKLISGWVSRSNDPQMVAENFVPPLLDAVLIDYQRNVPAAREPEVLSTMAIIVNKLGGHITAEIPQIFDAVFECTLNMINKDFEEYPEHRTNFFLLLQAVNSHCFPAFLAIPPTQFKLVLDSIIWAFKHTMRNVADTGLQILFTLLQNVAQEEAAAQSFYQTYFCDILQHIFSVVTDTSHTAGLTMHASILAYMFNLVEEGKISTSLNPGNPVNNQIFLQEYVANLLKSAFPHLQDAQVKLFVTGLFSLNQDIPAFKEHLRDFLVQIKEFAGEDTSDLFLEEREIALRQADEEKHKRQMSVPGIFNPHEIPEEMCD

SMILES | IC50 (U87MG; [2]) [nM] | IC50 (U87MG; [3]) [nM] | IC50 (U87MG; [4]) [nM] | IC50 (LN-229; [5]) [µM] | IC50 (U251; [6]) [µM] | IC50 (T98G; [7]) [µM] | IC50 (HCN2; [8]) [nM] | IC50 (HCN2; Table 9, read-out: HCN2 IC50) [nM] | bioavailability ([1]; plasma) [%] | AUC ([1]; plasma, 10 mg/kg, 10 mpk) [ng·h/mL] | half-life ([1]; plasma) [h] | Cmax [1, 9] [ng/mL] | Kp at 1 h ([1]; rat, 10 mg/kg) | EC50 (XPO1; [10]) [µM] | IC50 (XPO1; [11]) [nM] | IC50 (XPO1; second value of the cell) [nM] | EC50 (XPO1; [12]) [µM] | other results
O=C(/C=C\n1cnc(-c2cc(C(F)(F)F)cc(S(F)(F)(F)(F)F)c2)n1)NNc1cnccn1 [Compound I, (Z)-3-(3-(3-(pentafluorosulfanyl)-5-(trifluoromethyl)phenyl)-1H-1,2,4-triazol-1-yl)-N′-(pyrazin-2-yl)acrylohydrazide] | 592 | 384 | 798 | 0.6 | 1.2 | 1.7 | 25800 | 25800 | 98 | 10000 | 4.7 | 2550 | 0.71 | 0.012 | 16.3 | 7.7 | 0.012 | IC50 (U87MG; Table 6, read-out: U87MG IC50): 226 nM; IC50 (A549): 1490 nM; HCN2 Max % inh (HCN2; Table 8): 22%; IC50 (HCN2; Table 8, read-out: HCN2 IC50): > 50000 nM; Cmax ([1]; rat, 10 mg/kg, 10 mpk, first number of Plasma/brain pair, read-out: Cmax/(ng/mL) Plasma): 1890 ng/mL; Cmax ([1]; rat, 10 mg/kg, 10 mpk, second number of Plasma/brain pair, read-out: Cmax/(ng/mL) brain): 1300 ng/mL
CC(C)(C)C(=O)NNC(=O)/C=C\n1cnc(-c2cc(C(F)(F)F)cc(S(F)(F)(F)(F)F)c2)n1 [Compound III, (Z)-3-(3-(3-(Pentafluorosulfanyl)-5-(trifluoromethyl)phenyl)-1H-1,2,4-triazol-1-yl)-N′-pivaloylacrylohydrazide] | 1740 | 1120 | 2360 | 1.8 | 3.8 | 6.2 | > 50000 | > 50000 | 82 | 13900 | 5.2 | 1600 | 0.95 | 0.211 | 298 | 125 | 0.21 | IC50 (U87MG; U87MG, Table 12, read-out: Relative IC50): 200 nM; Max % Inhibition (U87MG; U87MG, Table 12): 46.3%; Bottom (U87MG; U87MG, curve fit, Table 12): −4.2; Hill Slope (U87MG; U87MG, curve fit, Table 12): 3.2; Top (U87MG; U87MG, curve fit, Table 12): 40.2; IC50 (LN-229; [13]): 1.8 µM; IC50 (U251; U251, 72 hours, Table 1, read-out: Growth inhibition (IC50)): 3.77 µM; expression of Ki67 in tumors (IHC) (Ki67): significantly decreased; IC50 (T98G; [13]): 6.25 µM; Cmax ([1]; 3 mg/kg, 3 mpk, first number of Plasma/brain pair, read-out: Cmax/(ng/mL) Plasma): 1250 ng/mL; Cmax ([1]; 3 mg/kg, 3 mpk, second number of Plasma/brain pair, read-out: Cmax/(ng/mL) brain): 1190 ng/mL; cell viability in REV-GFP assay (XPO1; 1 h, all concentrations tested): no decrease in cell viability; EC90 (XPO1; U2OS, concentration stated as EC90 in washout study, read-out: EC90 (REV-EGFP translocation)): 400 nM; EC50 (XPO1; concentration stated as EC50 in washout study, read-out: EC50 (REV-EGFP translocation)): 0.12 µM
